ChEMBL document CHEMBL5715954, “Silencing c-Myc translation as a therapeutic strategy through targeting PI3Kδ and CK1ε in hematological malignancies” (Blood, 2017)

What was measured:
Set-up in all cases: scale not given: the % may be the effect or the level left
[1] = biological target: Mitogen-activated protein kinase kinase kinase 9 (Homo sapiens) (UniProt P80192); assay: Inhibition of human MLK1 assessed as enzyme activity at 1 uM using casein as substrate preincubated for 20 mins followed by [gamma-33P]-ATP addition and measured after 120 mins by radiometric Hot-SpotSM Kinase assay relative to control
Chain of Mitogen-activated protein kinase kinase kinase 9 (Homo sapiens) (P80192 whole entry, looked up): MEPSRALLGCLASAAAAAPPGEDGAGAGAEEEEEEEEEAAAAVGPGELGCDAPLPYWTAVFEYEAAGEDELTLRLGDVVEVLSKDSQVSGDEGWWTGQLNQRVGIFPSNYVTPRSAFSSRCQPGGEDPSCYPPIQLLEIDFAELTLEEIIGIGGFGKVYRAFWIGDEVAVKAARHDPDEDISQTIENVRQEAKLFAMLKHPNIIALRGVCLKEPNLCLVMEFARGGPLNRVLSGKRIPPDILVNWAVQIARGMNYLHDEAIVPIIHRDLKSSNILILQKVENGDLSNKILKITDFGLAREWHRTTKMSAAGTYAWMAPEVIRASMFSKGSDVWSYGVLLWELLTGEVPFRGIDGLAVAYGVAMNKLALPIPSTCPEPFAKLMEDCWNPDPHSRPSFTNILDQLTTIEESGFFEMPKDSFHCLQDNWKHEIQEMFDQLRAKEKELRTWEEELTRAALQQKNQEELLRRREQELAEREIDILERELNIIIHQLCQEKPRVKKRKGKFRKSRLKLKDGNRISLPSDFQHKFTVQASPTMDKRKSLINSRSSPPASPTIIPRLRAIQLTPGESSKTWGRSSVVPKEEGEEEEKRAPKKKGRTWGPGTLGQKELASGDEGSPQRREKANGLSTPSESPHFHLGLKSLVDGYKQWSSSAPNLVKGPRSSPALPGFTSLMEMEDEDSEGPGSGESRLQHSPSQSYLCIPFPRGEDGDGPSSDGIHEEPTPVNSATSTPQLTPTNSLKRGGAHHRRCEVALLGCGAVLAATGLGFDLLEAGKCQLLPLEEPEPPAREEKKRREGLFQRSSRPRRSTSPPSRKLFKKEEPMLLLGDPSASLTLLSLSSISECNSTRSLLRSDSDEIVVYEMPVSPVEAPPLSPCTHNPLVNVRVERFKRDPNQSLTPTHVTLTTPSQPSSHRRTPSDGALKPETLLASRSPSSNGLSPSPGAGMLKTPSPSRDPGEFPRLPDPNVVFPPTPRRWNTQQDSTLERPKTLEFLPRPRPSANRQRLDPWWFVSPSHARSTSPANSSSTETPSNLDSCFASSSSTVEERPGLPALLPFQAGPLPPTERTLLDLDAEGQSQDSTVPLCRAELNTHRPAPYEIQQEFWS

[2] = biological target: T1, Serine/threonine-protein kinase TAO1 (Homo sapiens) (UniProt Q7L7X3); assay: Inhibition of human TAOK1 assessed as enzyme activity at 1 uM using myelin basic protein as substrate preincubated for 20 mins followed by [gamma-33P]-ATP addition and measured after 120 mins by radiometric Hot-SpotSM Kinase assay relative to control
T1 sequence (whole entry): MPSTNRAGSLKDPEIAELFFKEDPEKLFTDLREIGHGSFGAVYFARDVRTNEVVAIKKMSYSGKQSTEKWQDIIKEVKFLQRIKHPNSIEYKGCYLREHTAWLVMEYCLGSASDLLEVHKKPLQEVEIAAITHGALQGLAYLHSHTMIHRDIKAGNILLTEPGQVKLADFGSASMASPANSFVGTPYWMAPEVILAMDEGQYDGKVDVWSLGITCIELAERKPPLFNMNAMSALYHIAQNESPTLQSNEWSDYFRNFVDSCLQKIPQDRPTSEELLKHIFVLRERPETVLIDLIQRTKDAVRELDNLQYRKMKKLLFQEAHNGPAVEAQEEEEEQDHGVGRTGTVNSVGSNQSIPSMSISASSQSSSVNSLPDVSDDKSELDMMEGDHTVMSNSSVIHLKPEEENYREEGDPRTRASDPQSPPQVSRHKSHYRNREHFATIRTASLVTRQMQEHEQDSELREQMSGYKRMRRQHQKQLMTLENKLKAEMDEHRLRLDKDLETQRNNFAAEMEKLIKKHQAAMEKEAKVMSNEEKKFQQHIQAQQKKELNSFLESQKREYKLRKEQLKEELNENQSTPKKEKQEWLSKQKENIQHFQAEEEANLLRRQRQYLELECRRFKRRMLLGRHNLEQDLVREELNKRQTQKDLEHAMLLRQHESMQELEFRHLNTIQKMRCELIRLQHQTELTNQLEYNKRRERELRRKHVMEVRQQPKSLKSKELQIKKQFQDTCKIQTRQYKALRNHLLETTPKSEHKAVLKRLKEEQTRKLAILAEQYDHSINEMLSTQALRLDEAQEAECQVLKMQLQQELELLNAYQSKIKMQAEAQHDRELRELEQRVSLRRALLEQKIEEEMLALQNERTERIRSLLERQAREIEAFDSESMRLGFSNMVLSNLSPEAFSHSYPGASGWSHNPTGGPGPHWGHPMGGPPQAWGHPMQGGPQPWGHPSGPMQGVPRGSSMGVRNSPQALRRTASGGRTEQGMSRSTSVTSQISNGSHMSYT

[3] = biological target: T2, cGMP-dependent protein kinase 2 (Homo sapiens) (UniProt Q13237); assay: Inhibition of human PKG2 assessed as enzyme activity at 1 uM using LRRASLG as substrate preincubated for 20 mins followed by [gamma-33P]-ATP addition and measured after 120 mins by radiometric Hot-SpotSM Kinase assay relative to control
T2 sequence (whole entry): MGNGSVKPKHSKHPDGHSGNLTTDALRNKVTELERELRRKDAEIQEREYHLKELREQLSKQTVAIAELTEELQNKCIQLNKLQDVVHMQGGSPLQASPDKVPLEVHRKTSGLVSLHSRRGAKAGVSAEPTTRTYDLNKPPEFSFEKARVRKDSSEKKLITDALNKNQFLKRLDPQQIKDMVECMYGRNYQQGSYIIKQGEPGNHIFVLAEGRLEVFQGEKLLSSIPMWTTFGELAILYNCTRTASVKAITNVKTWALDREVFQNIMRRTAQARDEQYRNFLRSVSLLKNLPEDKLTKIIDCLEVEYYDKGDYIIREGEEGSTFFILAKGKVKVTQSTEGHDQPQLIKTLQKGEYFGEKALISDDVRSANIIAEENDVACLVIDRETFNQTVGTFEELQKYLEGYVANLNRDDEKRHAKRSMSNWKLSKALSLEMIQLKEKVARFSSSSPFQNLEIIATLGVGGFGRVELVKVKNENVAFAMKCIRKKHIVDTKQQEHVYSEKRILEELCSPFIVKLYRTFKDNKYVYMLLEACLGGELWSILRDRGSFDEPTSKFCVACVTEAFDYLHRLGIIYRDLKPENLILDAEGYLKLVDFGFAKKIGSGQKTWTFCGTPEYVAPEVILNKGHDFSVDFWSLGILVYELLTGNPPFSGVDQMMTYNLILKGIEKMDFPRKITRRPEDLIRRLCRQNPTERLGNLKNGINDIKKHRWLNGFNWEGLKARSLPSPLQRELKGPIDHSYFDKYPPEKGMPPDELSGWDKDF

[4] = biological target: T3, Serine/threonine-protein kinase Nek5 (Homo sapiens) (UniProt Q6P3R8); assay: Inhibition of human NEK5 assessed as enzyme activity at 1 uM using myelin basic protein as substrate preincubated for 20 mins followed by [gamma-33P]-ATP addition and measured after 120 mins by radiometric Hot-SpotSM Kinase assay relative to control
T3 sequence (whole entry): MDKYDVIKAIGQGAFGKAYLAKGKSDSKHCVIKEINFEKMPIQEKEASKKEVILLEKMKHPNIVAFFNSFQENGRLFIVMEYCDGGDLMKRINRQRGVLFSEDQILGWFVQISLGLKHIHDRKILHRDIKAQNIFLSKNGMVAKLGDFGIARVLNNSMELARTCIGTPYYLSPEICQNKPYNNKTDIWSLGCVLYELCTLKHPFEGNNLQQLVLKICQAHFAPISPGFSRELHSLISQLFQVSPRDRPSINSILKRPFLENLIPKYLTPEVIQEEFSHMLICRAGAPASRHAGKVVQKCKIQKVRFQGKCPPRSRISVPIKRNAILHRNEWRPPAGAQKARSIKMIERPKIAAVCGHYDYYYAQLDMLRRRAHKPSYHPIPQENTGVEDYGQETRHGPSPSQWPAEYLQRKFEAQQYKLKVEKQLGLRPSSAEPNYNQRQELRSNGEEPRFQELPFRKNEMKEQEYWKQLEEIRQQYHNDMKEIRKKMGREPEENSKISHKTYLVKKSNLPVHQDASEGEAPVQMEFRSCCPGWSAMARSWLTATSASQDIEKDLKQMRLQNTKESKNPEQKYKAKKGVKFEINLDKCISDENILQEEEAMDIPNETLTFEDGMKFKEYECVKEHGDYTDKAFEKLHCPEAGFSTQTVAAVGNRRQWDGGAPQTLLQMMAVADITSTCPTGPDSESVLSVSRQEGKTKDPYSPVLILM

| SMILES | Activity [1] [%] | Activity [2] [%] | Activity [3] [%] | Activity [4] [%] |
| --- | --- | --- | --- | --- |
| CC[C@H](Nc1ncnc2[nH]cnc12)c1nc2cccc(F)c2c(=O)n1-c1ccccc1 | 91.2 | 101 | 99.7 | 111 |
| CC(C)Oc1ccc(-c2nn([C@@H](C)c3oc4ccc(F)cc4c(=O)c3-c3cccc(F)c3)c3ncnc(N)c23)cc1F [UMBRALISIB] | 97.6 | 92.9 | 102 | 110 |
| C[C@H](Nc1ncnc2nc[nH]c12)c1cc2cccc(Cl)c2c(=O)n1-c1ccccc1 | 94 | 97.9 | 99.8 | 92.8 |
